Measured values published in patent publication US9492436B2, “Azabenzimidazole derivatives” (Boehringer Ingelheim International GmbH, priority 2013, dated 2016).
≈ marks a conversion by molar mass, not a printed value.

Assays:
[1] = molecular target: T1, AMPK complex 1 (containing alpha1beta1gamma1) (Homo sapiens, UniProt Q13131+Q9Y478); assay: In vitro AMPK activation assay (ADP-Glo Kinase Assay); assay type: biochemical; settings: 30 μM ATP, 1 μM peptide, 60 min, room temperature
T1 construct: GST (Glutathion S transferase) (N); made in house; host or cells: baculovirus; virus made in Sf9, expression in High Five cells
T1 sequence (Q13131 whole entry): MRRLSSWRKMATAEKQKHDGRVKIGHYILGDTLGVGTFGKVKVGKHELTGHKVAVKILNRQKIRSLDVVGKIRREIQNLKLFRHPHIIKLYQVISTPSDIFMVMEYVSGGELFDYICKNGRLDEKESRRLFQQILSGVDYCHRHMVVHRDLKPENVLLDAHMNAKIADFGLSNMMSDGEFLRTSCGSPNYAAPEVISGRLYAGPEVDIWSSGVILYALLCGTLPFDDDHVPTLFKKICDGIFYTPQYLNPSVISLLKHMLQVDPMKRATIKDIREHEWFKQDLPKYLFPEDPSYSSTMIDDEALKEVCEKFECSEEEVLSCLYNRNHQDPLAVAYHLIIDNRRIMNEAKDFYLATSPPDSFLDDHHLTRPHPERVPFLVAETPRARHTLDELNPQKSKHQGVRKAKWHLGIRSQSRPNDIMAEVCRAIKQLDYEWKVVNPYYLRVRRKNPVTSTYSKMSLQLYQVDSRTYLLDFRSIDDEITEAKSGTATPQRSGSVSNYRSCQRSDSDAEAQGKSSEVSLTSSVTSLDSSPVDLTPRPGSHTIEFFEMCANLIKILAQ
T1 sequence (Q9Y478 whole entry): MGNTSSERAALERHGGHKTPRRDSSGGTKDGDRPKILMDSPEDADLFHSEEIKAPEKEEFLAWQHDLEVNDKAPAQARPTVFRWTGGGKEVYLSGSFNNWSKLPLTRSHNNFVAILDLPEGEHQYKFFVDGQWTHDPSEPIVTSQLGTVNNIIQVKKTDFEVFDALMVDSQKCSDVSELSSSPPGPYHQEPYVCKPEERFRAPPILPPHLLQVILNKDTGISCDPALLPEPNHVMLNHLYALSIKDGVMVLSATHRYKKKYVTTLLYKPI
T1 sequence (P54619 whole entry partner): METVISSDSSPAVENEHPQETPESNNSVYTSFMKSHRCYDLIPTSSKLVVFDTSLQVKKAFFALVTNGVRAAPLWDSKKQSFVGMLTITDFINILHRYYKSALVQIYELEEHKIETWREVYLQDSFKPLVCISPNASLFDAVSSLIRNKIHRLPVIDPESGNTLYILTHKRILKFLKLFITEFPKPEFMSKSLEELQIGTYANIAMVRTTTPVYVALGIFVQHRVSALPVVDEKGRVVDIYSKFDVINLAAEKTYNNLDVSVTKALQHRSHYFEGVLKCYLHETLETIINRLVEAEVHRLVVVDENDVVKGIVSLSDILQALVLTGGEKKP
How it was run: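 GST-tagged human AMPK alpha1beta1gamma1 expressed in insect cells, incubated with 1 μM peptide substrate and 30 μM ATP for 60 min at room temperature, 0.1% DMSO. ADP-Glo luminescence as % of vehicle control (AMP 30 μM high reference); EC50 from 4-parameter fit; activation above 100%.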

[2] = system: plasma proteins; assay: Plasma protein binding by equilibrium dialysis, human plasma; assay type: in vitro ADME; settings: 37° C.
Description: (§1) Equilibrium dialysis (ED) technique is used to determine the approximate in vitro fractional binding of test compounds to plasma proteins (human, rat mouse):
(§2) Teflon dialysis cells or RED-devices are used. Each cell consists of a donor and an acceptor chamber, separated by an ultrathin semipermeable membrane (cutoff 5-10 kDa, high permeability).
(§3) Stock solutions for each test compound are prepared in DMSO. Plasma (anticoagulant EDTA) is spiked with test compound and then transferred into the donor chamber, while dialysis buffer (PBS containing Dextran, pH 7.4) is dispensed into the acceptor chamber.
(§4) Dextran (Leuconostoc ssp, MW approx. 40000, No. 31389, Fluka) concentration [g/L] in PBS for species: • human: 40 g/L buffer • rat: 37 g/L buffer • mouse 32 g/L buffer.
(§5) Incubation is carried out for up to 6 hours (standard 3 h) under rotation at 37° C. After the dialysis period aliquots of both dialysates are analysed using HPLC-MS/MS.
(§6) Percent bound is calculated according to the equation: % bound=(Cp−Cb/Cp)×100 • Cp=plasma concentration • Cb=buffer concentration
(§7) Percent free is calculated according to the equation: % free=100−% bound

[3] = system: plasma proteins; assay: Plasma protein binding by equilibrium dialysis, rat plasma; assay type: in vitro ADME; settings: 37° C.
Description: as §1, §2, §3, §4, §5, §6, §7

[4] = system: plasma proteins; assay: Plasma protein binding by equilibrium dialysis, mouse plasma; assay type: in vitro ADME; settings: 37° C.
Description: as §1, §2, §3, §4, §5, §6, §7

[5] = Aqueous solubility (buffer vs acetonitrile/water, 24 h shaking, LC-UV); assay type: physicochemical; settings: kinetic from dmso stock, 2.5% DMSO, ">" = more than 90% dissolved
Description: The aqueous solubility of the compounds of the invention is determined by comparing the amount dissolved in buffer to the amount in an acetonitrile/water (1/1) solution. Starting from a 10 mM DMSO stock solution aliquots are diluted with acetonitrile/water (1/1) or buffer resp. After 24 h of shaking, the solutions are filtrated and analyzed by LC-UV. The amount dissolved in buffer is compared to the amount in the acetonitrile solution.
Solubility is usually being measured from 0.001 to 0.125 mg/ml at a DMSO concentration of 2.5%. If more than 90% of the compound is dissolved in buffer, the value is marked with “>”.

Structure (SMILES)	EC50 [1]	Plasma Protein Binding [2]	Plasma Protein Binding [3]	Plasma Protein Binding [4]	solubility at 24 h ([5]; pH 2.2 buffer)	solubility at 24 h ([5]; pH 4.5 buffer)	solubility at 24 h ([5]; pH 6.8 buffer)
CS(C)(=O)=Nc1ccc(-c2ccc(-c3nc4[nH]c(O[C@@H]5CO[C@H]6[C@@H]5OC[C@H]6O)nc4cc3Cl)cc2)cc1 [Example 2, N-(4′-(6-Chloro-2-((3R,3aR,6R,6aR)-6-hydroxyhexahydrofuro[3,2-b]furan-3-yloxy)-3H-imidazo[4,5-b]pyridin-5-yl)biphenyl-4-yl)-S,S-dimethylsulfoximide]	3 nM	98.55 % bound	98.67 % bound	98.68 % bound	17 µg/mL (≈ 31.4 µM)	2 µg/mL (≈ 3.7 µM)	1 µg/mL (≈ 1.85 µM)
CN=S(C)(=O)c1ccc(-c2ccc(-c3nc4[nH]c(O[C@@H]5CO[C@H]6[C@@H]5OC[C@H]6O)nc4cc3Cl)cc2)cc1 (stereo partly drawn) [Example 10, (3R,3aR,6R,6aR)-6-(6-Chloro-5-(4′-(N,S-dimethylsulfonimidoyl)biphenyl-4-yl)-3H-imidazo[4,5-b]pyridin-2-yloxy)hexahydrofuro[3,2-b]furan-3-ol]	4 nM	98.92 % bound	98.23 % bound	98.64 % bound	105 µg/mL (≈ 194 µM)	< 1 µg/mL	< 1 µg/mL
CS(C)(=O)=NCc1ccc(-c2ccc(-c3nc4[nH]c(O[C@@H]5CO[C@H]6[C@@H]5OC[C@H]6O)nc4cc3Cl)cc2)cc1 [Example 45, N-(4′-(6-Chloro-2-((3R,3aR,6R,6aR)-6-hydroxyhexahydrofuro[3,2-b]furan-3-yloxy)-3H-imidazo[4,5-b]pyridin-5-yl)biphenyl-4-ylmethyl)-S,S-dimethylsulfoximide]	29 nM	98.48 % bound	98.94 % bound	99.23 % bound	> 119 µg/mL	5 µg/mL (≈ 9.01 µM)	< 1 µg/mL
